Source: patent publication US20240041042A1, “1-(PYRIDYL)-5-AZINYLPYRAZOLE DERIVATIVES, AND THEIR USE FOR CONTROL OF UNDESIRED PLANT GROWTH” (Bayer Aktiengesellschaft, priority 2020, published 2024)
Read-outs that look alike come from different tables or passages of the source.

Tests used:
Type in all cases: in vivo
[1] = tested on: Abutilon theophrasti (ABUTH); assay: Pre-emergence herbicidal action against ABUTH; settings: Dosage column 320 g/ha (title prints 3200 g/ha); scored visually after about 3 weeks; 100% = plants have died
Summary of the method: (§1)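 Read-out is visual percent damage relative to untreated pots, with 100% meaning dead plants and 0% meaning no difference, assessed roughly three weeks after treatment. Compounds were applied pre-emergence to the covering soil at up to 320 g/ha.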

[2] = tested on: Alopecurus myosuroides (ALOMY); assay: Pre-emergence herbicidal action against ALOMY; settings: scored visually after about 3 weeks, 100% = plants have died
Summary of the method: as §1

[3] = tested on: Amaranthus retroflexus (AMARE); assay: Pre-emergence herbicidal action against AMARE; settings: visual scoring after about 3 weeks vs untreated controls
Summary of the method: as §1

[4] = tested on: Avena fatua (AVEFA); assay: Pre-emergence herbicidal action against AVEFA; settings: 320 g/ha, visual scoring after about 3 weeks vs untreated controls
Summary of the method: as §1

[5] = tested on: Digitaria sanguinalis (DIGSA); assay: Pre-emergence herbicidal action against DIGSA
Summary of the method: as §1

[6] = tested on: Echinochloa crus-galli (ECHCG); assay: Pre-emergence herbicidal action against ECHCG
Summary of the method: as §1

[7] = tested on: Lolium rigidum (LOLRI); assay: Pre-emergence herbicidal action against LOLRI; settings: dosage 320 g/ha
Summary of the method: as §1

[8] = tested on: Matricaria inodora (MATIN); assay: Pre-emergence herbicidal action against MATIN; settings: dosage 320 g/ha
Summary of the method: as §1

[9] = tested on: Polygonum convolvulus (POLCO); assay: Pre-emergence herbicidal action against POLCO
Summary of the method: as §1

[10] = tested on: Setaria viridis (SETVI); assay: Pre-emergence herbicidal action against SETVI
Summary of the method: as §1

[11] = tested on: Verconica persica (VERPE); assay: Pre-emergence herbicidal action against VERPE
Summary of the method: as §1

[12] = tested on: Viola tricolor (VIOTR); assay: Pre-emergence herbicidal action against VIOTR
Summary of the method: as §1

[13] = tested on: Abutilon theophrasti (ABUTH); assay: Post-emergence herbicidal action against ABUTH; settings: visual rating about 3 weeks after treatment vs untreated controls (100% = plants have died, 0% = like control plants)
Summary of the method: (§2)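 Greenhouse plants sprayed at the one-leaf stage, 2–3 weeks after sowing, with WP or EC formulations plus 0.5% additive at 600 l/ha water. Activity rated visually after about 3 weeks versus untreated controls (100% = dead, 0% = like control), at 320 g/ha or lower.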

[14] = tested on: Alopecurus myosuroides (ALOMY); assay: Post-emergence herbicidal action against ALOMY; settings: visual rating about 3 weeks after treatment vs untreated controls (100% = plants have died, 0% = like control plants)
Summary of the method: as §2

[15] = tested on: Digitaria sanguinalis (DIGSA); assay: Post-emergence herbicidal action against DIGSA; settings: 80 g/ha, visual rating about 3 weeks after treatment
Summary of the method: as §2

[16] = tested on: Echinochloa crus-galli (ECHCG); assay: Post-emergence herbicidal action against ECHCG
Summary of the method: as §2

[17] = tested on: Pharbitis purpurea (PHBPU); assay: Post-emergence herbicidal action against PHBPU
Summary of the method: as §2

[18] = tested on: Polygonum convolvulus (POLCO); assay: Post-emergence herbicidal action against POLCO
Summary of the method: as §2

[19] = tested on: Setaria viridis (SETVI); assay: Post-emergence herbicidal action against SETVI
Summary of the method: as §2

[20] = tested on: Verconica persica (VERPE); assay: Post-emergence herbicidal action against VERPE
Summary of the method: as §2

[21] = tested on: Viola tricolor (VIOTR); assay: Post-emergence herbicidal action against VIOTR; settings: 80 g/ha
Summary of the method: as §2

[22] = tested on: Oryza sativa (ORYSA); settings: crop plant compatibility
Summary of the method: (§3)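 Foliar application at the one-leaf stage: WP/EC formulation, 0.5% additive, 600 l/ha water. Greenhouse-grown in sandy loam. Endpoint is visual % injury relative to untreated controls at about 3 weeks.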

[23] = tested on: Zea mays (ZEAMX); settings: 20 g/ha, ZEAMX, effect in comparison to untreated controls
Summary of the method: as §3

[24] = tested on: Pharbitis purpurea (PHBPU); assay: Pre-emergence herbicidal action against PHBPU; settings: dosage 320 g/ha
Summary of the method: as §1

[25] = tested on: Zea mays (ZEAMX); settings: pre-emergence, 80 g/ha, crop plant compatibility, in comparison to untreated controls
Summary of the method: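 Scoring: visual, % of untreated control, about 3 weeks after a pre-emergence application to the soil surface. Application used WP or EC formulations diluted in water with 0.5% additive at 600 l/ha; dosage levels are marked by suffixes a, b and c.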

[26] = tested on: Amaranthus retroflexus (AMARE); assay: Post-emergence herbicidal action against AMARE
Summary of the method: as §2

[27] = tested on: Avena fatua (AVEFA); assay: Post-emergence herbicidal action against AVEFA; settings: 320 g/ha, visual rating about 3 weeks after treatment
Summary of the method: as §2

[28] = tested on: Lolium rigidum (LOLRI); assay: Post-emergence herbicidal action against LOLRI; settings: dosage 320 g/ha
Summary of the method: as §2

[29] = tested on: Matricaria inodora (MATIN); assay: Post-emergence herbicidal action against MATIN; settings: dosage 320 g/ha
Summary of the method: as §2

Row | SMILES | Pre-emergence action against ABUTH [1] [%] | Pre-emergence action against ALOMY ([2]; 80 g/ha) [%] | Pre-emergence action against ALOMY ([2]; 320 g/ha) [%] | Pre-emergence action against AMARE in % ([3]; 80 g/ha) [%] | Pre-emergence action against AMARE in % ([3]; 320 g/ha) [%] | Pre-emergence action against AVEFA in % [4] [%] | Pre-emergence action against ECHCG in % ([6]; dosage 320 g/ha) [%] | Pre-emergence action against LOLRI in % [7] [%] | Pre-emergence action against MATIN in % [8] [%] | Pre-emergence action against POLCO in % ([9]; dosage 320 g/ha) [%] | Pre-emergence action against SETVI in % ([10]; dosage 320 g/ha) [%] | Pre-emergence action against VERPE in % ([11]; dosage 320 g/ha) [%] | Pre-emergence action against VIOTR in % ([12]; 320 g/ha, Viola tricolor) [%] | Post-emergence action against ABUTH in % ([13]; 80 g/ha) [%] | Post-emergence action against ALOMY in % ([14]; 80 g/ha) [%] | Post-emergence action against ECHCG in % ([16]; dosage 80 g/ha) [%] | Post-emergence action against PHBPU in % ([17]; dosage 80 g/ha) [%] | Post-emergence action against POLCO in % ([18]; dosage 80 g/ha) [%] | Post-emergence action against VERPE in % ([20]; dosage 80 g/ha) [%] | further results
1 | CCOC(=O)COc1nn(-c2ncccc2F)c(-c2ccc(F)nc2)c1Br [Example I-39] | 90 | 100 | 100 | 100 | 100 | 90 | 100 | 100 | 100 | 90 | 100 | 100 | 100 | 90 | 100 | 80 | 80 | 90 | 80 | Pre-emergence action against DIGSA in % ([5]; 80 g/ha, visual scoring after about 3 weeks vs untreated controls): 100%; Pre-emergence action against DIGSA in % ([5]; dosage 320 g/ha): 100%; Pre-emergence action against SETVI in % ([10]; dosage 80 g/ha): 100%; Pre-emergence action against VIOTR in % ([12]; dosage 80 g/ha): 100%; Post-emergence action against DIGSA in % [15]: 90%; Post-emergence action against SETVI in % ([19]; dosage 80 g/ha): 80%; Post-emergence action against VIOTR in % [21]: 80%; Post-emergence action against ORYSA in % ([22]; 20 g/ha, effect vs untreated controls): 0%; Post-emergence action against ZEAMX in % (crop plant compatibility) [23]: 0%
2 | COC(=O)CCOC(=O)COc1nn(-c2ccccn2)c(-c2ccc(F)nc2)c1Cl [Example I-88] | 80 | 80 | 100 | 80 | 100 | 90 | 100 | 100 | 90 | 90 | 100 | 90 | 90 | 80 | 80 | 80 | 80 | 80 | 80 | Pre-emergence action against ECHCG in % ([6]; dosage 80 g/ha): 90%; Pre-emergence action against PHBPU in % [24]: 80%; Pre-emergence action against POLCO in % ([9]; dosage 80 g/ha): 80%; Pre-emergence action against VERPE in % ([11]; dosage 80 g/ha): 80%; Pre-emergence action against ZEAMX in % [25]: 20%; Post-emergence action against ABUTH in % ([13]; 320 g/ha): 80%; Post-emergence action against ALOMY in % ([14]; 320 g/ha): 90%; Post-emergence action against AMARE in % ([26]; 80 g/ha, visual rating about 3 weeks after treatment vs untreated controls (100% = plants have died, 0% = like control plants)): 80%; Post-emergence action against AMARE in % ([26]; 320 g/ha, visual rating about 3 weeks after treatment): 80%; Post-emergence action against AVEFA in % [27]: 90%; Post-emergence action against ECHCG in % ([16]; dosage 320 g/ha): 90%; Post-emergence action against LOLRI in % [28]: 80%; Post-emergence action against MATIN in % [29]: 80%; Post-emergence action against PHBPU in % ([17]; dosage 320 g/ha): 80%; Post-emergence action against POLCO in % ([18]; dosage 320 g/ha): 80%; Post-emergence action against SETVI in % ([19]; dosage 320 g/ha): 80%; Post-emergence action against VERPE in % ([20]; 320 g/ha, VERPE): 80%; Post-emergence action against ORYSA in % ([22]; 80 g/ha, effect in comparison to untreated controls): 0%
